Data set [1] relates to TRZAS (Triticum aestivum). Nature of the data set: Drought stress test on crop plants, spray application, TRZAS. It is filed as in vivo. Particulars: for percent reduction in drought damage at 25 g/ha / percent reduction in drought damage at 250 g/ha / pest or weed control at 25 g/ha / pest or weed control at 250 g/ha: read-out: EF (TRZAS), efficacy = percentage reduction in the intensity of damage; for pest or weed control at 25 g/ha: dosage 25 g/ha. Here is the method: (§1) Seeds of monocotyledonous and dicotyledonous crop plants were placed in sandy loam in wood-fiber pots, covered with soil and cultivated in a greenhouse under good growth conditions. The test plants were treated at the early leaf stage (BBCH10-BBCH13). To ensure uniform water supply before commencement of stress, the potted plants were supplied with the maximum amount of water immediately beforehand by dam irrigation.
(§2) The inventive compounds, formulated in the form of wettable powders (WP) were sprayed onto the green parts of the plants as an aqueous suspension at an equivalent water application rate of 600 l/ha with addition of 0.2% wetting agent (agrotin). Substance application was followed immediately by stress treatment of the plants, for which the pots were transferred in plastic inserts in order to prevent subsequent, excessively rapid drying.
(§3) Drought stress was induced by gradual drying out under the following conditions: • “day”: 14 hours with illumination at ˜26° C. • “night”: 10 hours without illumination at ˜18° C.
(§4) The duration of the respective stress phases was guided mainly by the state of the untreated, stressed control plants and thus varies from crop to crop. It was ended (by re-irrigating or transfer to a greenhouse with good growth conditions) as soon as irreversible damage is observed on the untreated, stressed control plants. In the case of dicotyledonous crops, for example oilseed rape and soya, the duration of the drought stress phase was between 3 and 6 days, in the case of monocotyledonous crops, for example wheat, barley or corn, between 6 and 11 days.
(§5) The end of the stress phase was followed by an approx. 5-7-day recovery phase, during which the plants were once again kept under good growth conditions in a greenhouse. In order to rule out any influence of the effects observed by any fungicidal action of the test compounds, it was additionally ensured that the tests proceed without fungal infection and without infection pressure.
(§6) After the recovery phase had ended, the intensities of damage were rated visually compared to untreated, unstressed controls of the same age (in the case of drought stress) or the same growth stage (in the case of cold stress). The intensity of damage was first assessed as a percentage (100% =plants have died, 0% =like control plants). These values were then used to calculate the efficacy of the test compounds (=percentage reduction in the intensity of damage as a result of substance application) by the following formula:
(§7) [formula] • EF: efficacy (%) • DVus: damage value of the untreated, stressed control • […] with test compound
(§8) The tables below list mean values in each case from 2 or more independent experiments.
(§9) Tables A.1 to A.3 show, by way of example, the efficacies of compound of formula (I) as herein defined under drought stress and in conjunction with application to different crop plants, i.e. in table A.1 on application to BRSNS (Brassica napus), in table A.2 on application to TRZAS (Triticum aestivum) and in table A.3 on application to ZEAMX (Zea mays): […]

Data set [2] in a line: logP determination by HPLC on a reversed-phase column (EEC Directive 79/831 Annex V.A8). The following applies: reversed-phase C18 HPLC column.
Description: Temperature: 40° C.; Mobile phases: 0.1% aqueous formic acid and acetonitrile; linear gradient from 10% acetonitrile to 90% acetonitrile.
Calibration was carried out using unbranched alkan-2-ones (comprising 3 to 16 carbon atoms) with known logP values (determination of the logP values by the retention times using linear interpolation between two successive alkanones). lambda-max-values were determined using UV-spectra from 200 nm to 400 nm and the peak values of the chromatographic signals.
Data set [3] deals with BRSNS (Brassica napus). Kind of data set: Drought stress test on crop plants, spray application, BRSNS. It is filed as in vivo. The following applies: mean of 2 or more experiments. Here is the method: as §1, §2, §3, §4, §5, §6, §7, §8, §9
The test system of data set [4] is ZEAMX (Zea mays). Kind of data set: Drought stress test on crop plants, spray application, ZEAMX. The class given is in vivo. Particulars: dosage 250 g/ha, mean of 2 or more experiments. On the procedure:
as §1, §2
Drought stress was induced by gradual drying out under the following conditions: • “day”: 14 hours with illumination at ˜26° C. • “night”: 10 hours without illumination at ˜18° C. […]
After the recovery phase had ended, the intensities of damage were rated visually compared to untreated, unstressed controls of the same age (in the case of drought stress) or the same growth stage (in the case of cold stress). The intensity of damage was first assessed as a percentage (100% =plants have died, 0% =like control plants). […]

Setting [5] is: drought stress, spray, mean of 2 or more experiments.
Setting [6] is: drought stress, dosage 250 g/ha, spray, mean of 2 or more experiments.

Consider `Cn1nc(C(F)F)c(C(=O)N(Cc2ccccc2C(C)(C)C)C2CC2)c1F` [Compound A3, N-(2-tert-butylbenzyl)-N-cyclopropyl-3-(difluoromethyl)-5-fluoro-1-methyl-1H-pyrazole-4-carboxamide], for which, in data set [1], the percent reduction in drought damage at 25 g/ha is greater than 5% and the percent reduction in drought damage at 250 g/ha is greater than 5%. For the same molecule, in data set [2], the chromatographic logP (in general, lipophilicity estimated from chromatographic retention) amounted to 4.06.

Turning to `CCc1ccc(F)cc1CN(C(=O)c1c(C(F)F)nn(C)c1F)C1CC1` [Compound A6, N-cyclopropyl-3-(difluoromethyl)-N-(2-ethyl-5-fluorobenzyl)-5-fluoro-1-methyl-1H-pyrazole-4-carboxamide], the “EF (BRSNS), efficacy = percentage reduction in the intensity of damage” value in data set [3] (dosage 25 g/ha) is recorded as greater than 5%. Further, in data set [1] (setting [5]), the pest or weed control at 25 g/ha was greater than 5%. In addition, the pest or weed control at 250 g/ha in data set [1] (setting [6]) is greater than 5%. The molecule also returned a chromatographic logP in data set [2] of 3.41.

On to `CCc1ccc(Cl)cc1CN(C(=O)c1c(C(F)F)nn(C)c1F)C1CC1` [Compound A4, N-(5-chloro-2-ethylbenzyl)-N-cyclopropyl-3-(difluoromethyl)-5-fluoro-1-methyl-1H-pyrazole-4-carboxamide], for which, in data set [1], the percent reduction in drought damage at 25 g/ha is greater than 5%. In data set [2], this molecule showed a chromatographic logP of 3.76.

For `Cc1ccc(C(F)(F)F)c(CN(C(=O)c2c(C(F)F)nn(C)c2F)C2CC2)c1` [Compound A16, N-cyclopropyl-3-(difluoromethyl)-5-fluoro-1-methyl-N-[5-methyl-2-(trifluoromethyl)benzyl]-1H-pyrazole-4-carboxamide], the percent reduction in drought damage at 250 g/ha in data set [1] is greater than 5%. Also, the chromatographic logP in data set [2] was found to be 3.78.

In data set [2], `Cn1nc(C(F)F)c(C(=O)N(Cc2c(C(F)(F)F)ccc(Cl)c2F)C2CC2)c1F` [Compound A18, N-[3-chloro-2-fluoro-6-(trifluoromethyl)benzyl]-N-cyclopropyl-3-(difluoromethyl)-5-fluoro-1-methyl-1H-pyrazole-4-carboxamide] had a chromatographic logP of 3.62.

Take `Cc1ccc(C(C)C)c(CN(C(=O)c2c(C(F)F)nn(C)c2F)C2CC2)c1` [Compound A12, N-cyclopropyl-3-(difluoromethyl)-5-fluoro-N-(2-isopropyl-5-methylbenzyl)-1-methyl-1H-pyrazole-4-carboxamide]: the “EF (BRSNS), efficacy = percentage reduction in the intensity of damage” value in data set [3] (dosage 2.5 g/ha), in data set [3] (dosage 25 g/ha) and in data set [3] (dosage 250 g/ha) was greater than 5% each time. This molecule also had a chromatographic logP in data set [2] of 3.99.

Regarding `CCc1ccc(C)cc1CN(C(=O)c1c(C(F)F)nn(C)c1F)C1CC1` [Compound A11, N-cyclopropyl-3-(difluoromethyl)-N-(2-ethyl-5-methylbenzyl)-5-fluoro-1-methyl-1H-pyrazole-4-carboxamide], the pest or weed control at 25 g/ha in data set [1] (setting [5]) is greater than 5%. In addition, the chromatographic logP in data set [2] turned out to be 3.7.

In the case of `Cc1ccc(C(C)(C)C)c(CN(C(=O)c2c(C(F)F)nn(C)c2F)C2CC2)c1` [Compound A14, N-(2-tert-butyl-5-methylbenzyl)-N-cyclopropyl-3-(difluoromethyl)-5-fluoro-1-methyl-1H-pyrazole-4-carboxamide], the percent reduction in drought damage at 250 g/ha in data set [1] is greater than 5%. Also, in data set [2], the chromatographic logP turned out to be 4.36.

Regarding `CCc1cc(C)c(C)cc1CN(C(=O)c1c(C(F)F)nn(C)c1F)C1CC1` [Compound A19, N-cyclopropyl-3-(difluoromethyl)-N-(2-ethyl-4,5-dimethylbenzyl)-5-fluoro-1-methyl-1H-pyrazole-4-carboxamide], in data set [3] (dosage 25 g/ha), the “EF (BRSNS), efficacy = percentage reduction in the intensity of damage” value was greater than 5%. Further, the pest or weed control at 25 g/ha in data set [1] (setting [5]) is greater than 5%. This molecule also gave a chromatographic logP in data set [2] of 4.04.

For the molecule `Cn1nc(C(F)F)c(C(=O)N(Cc2cc(Cl)ccc2C(F)(F)F)C2CC2)c1F` [Compound A15, N-[5-chloro-2-(trifluoromethyl)benzyl]-N-cyclopropyl-3-(difluoromethyl)-5-fluoro-1-methyl-1H-pyrazole-4-carboxamide], in data set [2], the chromatographic logP was 3.8.

With `CC(C)c1ccc(F)cc1CN(C(=O)c1c(C(F)F)nn(C)c1F)C1CC1` [Compound A7, N-cyclopropyl-3-(difluoromethyl)-5-fluoro-N-(5-fluoro-2-isopropylbenzyl)-1-methyl-1H-pyrazole-4-carboxamide], the “EF (BRSNS), efficacy = percentage reduction in the intensity of damage” value in data set [3] (dosage 250 g/ha) was greater than 5%. In data set [2], this molecule displayed a chromatographic logP of 3.7.

On to `CC(C)c1ccc(Cl)cc1CN(C(=O)c1c(C(F)F)nn(C)c1F)C1CC1` [Compound A5, N-(5-chloro-2-isopropylbenzyl)-N-cyclopropyl-3-(difluoromethyl)-5-fluoro-1-methyl-1H-pyrazole-4-carboxamide], for which the “EF (BRSNS), efficacy = percentage reduction in the intensity of damage” value in data set [3] (dosage 25 g/ha) was greater than 5%. Further, the pest or weed control at 25 g/ha in data set [1] (setting [5]) was greater than 5%. Besides, the pest or weed control at 250 g/ha in data set [1] (setting [6]) is greater than 5%. In addition, the chromatographic logP in data set [2] worked out at 4.09.

In data set [2], `CC(C)c1cccc(F)c1CN(C(=O)c1c(C(F)F)nn(C)c1F)C1CC1` [Compound A10, N-cyclopropyl-3-(difluoromethyl)-5-fluoro-N-(2-fluoro-6-isopropylbenzyl)-1-methyl-1H-pyrazole-4-carboxamide] yielded a chromatographic logP of 3.65.

“N-cyclopropyl-3-(difluoromethyl)-5-fluoro-N-(2-isopropylbenzyl)-1-methyl-1H-pyrazole-4-carbothio-amide [Compound A20]”: the “EF (TRZAS), efficacy = percentage reduction in the intensity of damage” value in data set [1] (setting [6]) was greater than 5%.

In data set [2], `Cn1nc(C(F)F)c(C(=O)N(Cc2cc(F)ccc2C2CCCC2)C2CC2)c1F` [Compound A9, N-(2-cyclopentyl-5-fluorobenzyl)-N-cyclopropyl-3-(difluoromethyl)-5-fluoro-1-methyl-1H-pyrazole-4-carboxamide] came in with a chromatographic logP of 4.21.

The molecule `Cc1ccc(C2CC2)c(CN(C(=O)c2c(C(F)F)nn(C)c2F)C2CC2)c1` [Compound A13, N-cyclopropyl-N-(2-cyclopropyl-5-methylbenzyl)-3-(difluoromethyl)-5-fluoro-1-methyl-1H-pyrazole-4-carboxamide] showed a chromatographic logP in data set [2] of 3.76.

With `Cn1nc(C(F)F)c(C(=O)N(Cc2c(Cl)cccc2C(F)(F)F)C2CC2)c1F` [Compound A17, N-[2-chloro-6-(trifluoromethyl)benzyl]-N-cyclopropyl-3-(difluoromethyl)-5-fluoro-1-methyl-1H-pyrazole-4-carboxamide], the chromatographic logP in data set [2] amounted to 3.46.

Consider `Cn1nc(C(F)F)c(C(=O)N(Cc2cc(F)ccc2C2CC2)C2CC2)c1F` [Compound A8, N-cyclopropyl-N-(2-cyclopropyl-5-fluorobenzyl)-3-(difluoromethyl)-5-fluoro-1-methyl-1H-pyrazole-4-carboxamide], for which the “EF (BRSNS), efficacy = percentage reduction in the intensity of damage” value in data set [3] (dosage 2.5 g/ha) is greater than 5%. Also, the “EF (ZEAMX), efficacy = percentage reduction in the intensity of damage” value in data set [4] was greater than 5%. In addition, the chromatographic logP in data set [2] amounted to 3.46.

For `CC(C)c1ccccc1CN(C(=O)c1c(C(F)F)nn(C)c1F)C1CC1` [Compound A1, N-cyclopropyl-3-(difluoromethyl)-5-fluoro-N-(2-isopropylbenzyl)-1-methyl-1H-pyrazole-4-carboxamide], the chromatographic logP in data set [2] came to 3.35.

`Cn1nc(C(F)F)c(C(=O)N(Cc2ccccc2C2CC2)C2CC2)c1F` [Compound A2, N-cyclopropyl-N-(2-cyclopropylbenzyl)-3-(difluoromethyl)-5-fluoro-1-methyl-1H-pyrazole-4-carboxamide]: the “EF (BRSNS), efficacy = percentage reduction in the intensity of damage” value in data set [3] (dosage 2.5 g/ha), in data set [3] (dosage 25 g/ha) and in data set [3] (dosage 250 g/ha) was greater than 5% throughout. Further, the chromatographic logP in data set [2] amounted to 3.44.
